# Assay type: physicochemical
# Experimental: A hemi-fumarate Form A (acetonitrile solvate) and hemi-fumarate Form B (non-solvated) of 3-(2,5-difluorophenyl)-7-[1,1-di(methyl-d3)ethyl-2,2,2-d3]-6-[(1-methyl-1H-1,2,4-triazol-5-yl)methoxy]-1,2,4-triazolo[4,3-b]pyridazine were prepared. A seed crystal for Form B was prepared by first combining 20.3 mg ([…]) 3-(2,5-difluorophenyl)-7-[1,1-di(methyl-d3)ethyl-2,2,2-d3]-6-[(1-methyl-1H-1,2,4-triazol-5-yl)methoxy]-1,2,4-triazolo[4,3-b]pyridazine with 1000 μL acetone. Fumaric acid/EtOH was added ([…], 1.0 eq) and the sample was continuously stirred while cycling the temperature between 40° C. and 5° C. (heating and cooling at 2° C./min. with 1 hour hold at 40° C. and 5° C.) for 48 hours. The samples were isolated at 5° C. and the suspension was equilibrated with stirring at 20° C. for 2 hours. Birefringent solids were harvested by filtration at room temperature and air-dried overnight. 3-(2,5-difluorophenyl)-7-[1,1-di(methyl-d3)ethyl-2,2,2-d3]-6-[(1-methyl-1H-1,2,4-triazol-5-yl)methoxy]-1,2,4-triazolo[4,3-b]pyridazine (5.51 mmol) was combined with acetone ([…], 16 vol). To the resulting solution (with minimal residual solids), fumaric acid (575 mg, 1.0 eq) was added, followed by seeding, e.g., with Form B (˜10 mg). […]
smiles,measurement,value
"[2H]C([2H])([2H])C(c1cc2nnc(-c3cc(F)ccc3F)n2nc1OCc1ncnn1C)(C([2H])([2H])[2H])C([2H])([2H])[2H] [Form A, 3-(2,5-difluorophenyl)-7-[1,1-di(methyl-d3)ethyl-2,2,2-d3]-6-[(1-methyl-1H-1,2,4-triazol-5-yl)methoxy]-1,2,4-triazolo[4,3-b]pyridazine]",solid form stability at ambient conditions,converted to Form B
